Assay results taken from ChEMBL document CHEMBL1154146, “A 2-substituted prodiginine, 2-(p-hydroxybenzyl)prodigiosin, from Pseudoalteromonas rubra” (J Nat Prod, 2008).
The source made the active and inactive calls. No cut-off for these calls is given here.

How the values were obtained:
SK-OV-3 = test: Cytotoxicity against human SKOV3 cells after 48 hrs by SRB assay; format: functional, cell-based; conditions: SK-OV-3, 48 h
[1] = target: T1, DNA topoisomerase 1 (Homo sapiens) (UniProt P11387); test: Inhibition of human topoisomerase 1
T1 sequence (whole entry): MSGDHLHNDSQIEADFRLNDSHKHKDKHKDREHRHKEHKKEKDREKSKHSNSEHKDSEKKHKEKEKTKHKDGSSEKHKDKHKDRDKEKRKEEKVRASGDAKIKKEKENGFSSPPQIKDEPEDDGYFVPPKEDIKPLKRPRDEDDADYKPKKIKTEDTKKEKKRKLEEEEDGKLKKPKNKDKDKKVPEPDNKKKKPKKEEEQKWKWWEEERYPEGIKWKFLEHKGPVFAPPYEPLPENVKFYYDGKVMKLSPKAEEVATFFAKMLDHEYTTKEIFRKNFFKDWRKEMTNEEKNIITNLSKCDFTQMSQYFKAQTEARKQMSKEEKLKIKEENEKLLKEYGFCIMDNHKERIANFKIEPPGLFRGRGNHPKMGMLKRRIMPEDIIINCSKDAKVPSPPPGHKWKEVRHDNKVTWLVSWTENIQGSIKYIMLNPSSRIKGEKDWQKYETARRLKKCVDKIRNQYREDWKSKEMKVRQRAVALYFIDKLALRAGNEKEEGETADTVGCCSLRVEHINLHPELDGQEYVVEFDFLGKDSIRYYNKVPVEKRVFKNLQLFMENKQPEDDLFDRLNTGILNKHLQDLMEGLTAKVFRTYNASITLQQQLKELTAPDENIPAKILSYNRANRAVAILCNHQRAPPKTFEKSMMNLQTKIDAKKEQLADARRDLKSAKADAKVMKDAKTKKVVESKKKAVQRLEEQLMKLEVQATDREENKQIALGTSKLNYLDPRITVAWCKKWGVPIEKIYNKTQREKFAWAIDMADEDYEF

Q: Which IC50 (SK-OV-3) does the source give for CCCCCC1=C/C(=C/c2[nH]c(-c3ccc(Cc4ccc(O)cc4)[nH]3)cc2OC)N=C1C here?
A: 1300 nM

Q: And the inhibition [1]?
A: Active

Q: What does the source list for CCCCCC1=C/C(=C/c2[nH]c(-c3ccc[nH]3)cc2OC)N=C1C [PRODIGIOSIN]?
A: IC50 (SK-OV-3): 1300 nM; inhibition [1]: Active
